Assay results as given in patent publication US6855828B1, “Detection of hypoxia” (The Trustees of the University of Pennsylvania, priority 1992, dated 2005).
Values joined by “and” are separate entries in the source; they are usually repeats but may differ in a detail not shown here. Equal values may be shown once. Blank lines part the entries; values can stand above or below the compound they belong to.

Columns and labels:
[1] = tested on: existing antibodies (to EF5 and EF3); assay: Affinity of existing antibodies towards EF1; type: binding
Morris 7777 hepatoma = assay: PET image of tumor-bearing rat treated with [^18F]-EF1; type: in vivo; conditions: 150 minutes post injection
Procedure: FIG. 4 illustrates a PET image of a tumor-bearing rat treated with 18-F-labeled EF1 (2-(2-nitro-1H-imidazol-1-yl)-N-3-monofluoropropyl) acetamide, 150 minutes post injection.
(§1) Q7 cells were obtained from the American Type Culture Collection (ATCC). They were maintained in exponential growth by transfers at 3.5 day intervals with standard culture conditions. Growth medium was Eagle's MEM supplemented with 15% fetal calf serum and standard penicillin and streptomycin.
(§2) All animal studies conformed to the regulations of the University of Pennsylvania Institutional Animal Care and Use Committee. Male Buffalo rats (Harlan Sprague Dawley, Indianapolis, Ind., USA) were used for all studies. Donor tumors were created by injecting 1 million Q7 cells subcutaneously into the thigh region. The average growth time to achieve a 1 cm diameter tumor was 21 days. Tumors of less than 2 g were used in the experiments.
It is believed that this is the first PET image of a rodent tumor where substantial image modifications to eliminate gut clearance effects have not been necessary.

[2] = Distribution of [^18F]-EF1 in murine organs and tissues; type: in vivo, mice; design: Distribution in murine tissues, Kidney / Distribution in murine tissues, Heart / Distribution in murine tissues, Muscle / Distribution in murine tissues, Liver / Distribution in murine tissues, Spleen: unit not given beside the values
Procedure: (§3) To measure the distribution of radioactive drug in various organs and tissues, the solution of [^18F]-EF1 in saline buffer was injected I/V into 2 male Buffalo rats. Animals was sacrificed and the samples of tissues were collected and weighted. The radioactivity of samples was measured by γ-counter and corrected for weight and the time of decay.
The distribution of radioactive drug in various murine organs and tissues was measured similarly to the previous example. [^18F]-EF1 was injected into 4 mice, which were sacrificed after 5 and 90 minutes and the radioactivity of tissues was measured.

[3] = Tissue distribution of [^18F]-EF1 in rats bearing tumors (γ-counter); type: in vivo; conditions: tumor-bearing rat, I/V
Excerpt: as §1, §2, §3
In particular, note that the density of radioactive counts closely parallels the findings from the image analysis. Results from 2 animals, are shown. PET and immunohistochemical images from both animals were very similar (data not shown)

Structure (SMILES): O=C(Cn1ccnc1[N+](=O)[O-])NCCCF [EF1, (2-(2-nitro-1H-imidazol-1-yl)-N-3-monofluoropropyl) acetamide]
Affinity of existing antibodies (to EF5 and EF3) towards compound [1]: only a modest affinity

Density of label in mouse-brain tissue compared with other organs ([2]; early times): substantially lower densities
Distribution in murine tissues, Blood ([2]; mouse, 5 minutes): 0.041 and 0.038
Distribution in murine tissues, Brain ([2]; mouse, 5 minutes): 0.004
Distribution in murine tissues, Cecum ([2]; mouse, 5 minutes, Cecum): 0.022 and 0.023
Distribution in murine tissues, Heart ([2]; mouse, 5 minutes): 0.041 and 0.052
Distribution in murine tissues, Intestine ([2]; mouse, 5 minutes): 0.037 and 0.039
Distribution in murine tissues, Kidney ([2]; mouse, 5 minutes): 0.072 and 0.044
Distribution in murine tissues, Liver ([2]; mouse, 5 minutes): 0.064 and 0.050
Distribution in murine tissues, Lung ([2]; mouse, 5 minutes): 0.052 and 0.046
Distribution in murine tissues, Muscle ([2]; mouse, 5 minutes): 0.038 and 0.031
Distribution in murine tissues, Spleen ([2]; mouse, 5 minutes): 0.034 and 0.035
Distribution in murine tissues, Stomach ([2]; mouse, 5 minutes): 0.013
Distribution in murine tissues, Tibia ([2]; mouse, 5 minutes): 0.045 and 0.042
Distribution in murine tissues, Urine ([2]; mouse, 5 minutes): 0.045
Distribution in murine tissues, Blood ([2]; mouse, 90 minutes): 0.005 and 0.007
Distribution in murine tissues, Brain ([2]; mouse, 90 minutes): 0.003 and 0.005
Distribution in murine tissues, Esophagus ([2]; mouse, 90 minutes, Esophagus): 0.012
Distribution in murine tissues, Heart ([2]; mouse, 90 minutes): 0.006 and 0.009
Distribution in murine tissues, Intestine ([2]; mouse, 90 minutes): 0.014 and 0.012
Distribution in murine tissues, Kidney ([2]; mouse, 90 minutes): 0.011 and 0.015
Distribution in murine tissues, Liver ([2]; mouse, 90 minutes): 0.016 and 0.020
Distribution in murine tissues, Lung ([2]; mouse, 90 minutes): 0.007 and 0.005
Distribution in murine tissues, Muscle ([2]; mouse, 90 minutes): 0.005 and 0.009
Distribution in murine tissues, Spleen ([2]; mouse, 90 minutes): 0.005 and 0.007
Distribution in murine tissues, Stomach ([2]; mouse, 90 minutes): 0.007 and 0.009
Distribution in murine tissues, Tail ([2]; mouse, 90 minutes, Tail): 0.071 and 0.051
Distribution in murine tissues, Tibia ([2]; mouse, 90 minutes): 0.079 and 0.064
Distribution in murine tissues, Urine ([2]; mouse, 90 minutes): 0.595 and 0.786
Tissue distribution, Brain ([3]; 3 hrs, Brain): 0.13 % dose/gram and 0.11 % dose/gram
Tissue distribution, Kidney ([3]; 3 hrs, Kidney): 0.54 % dose/gram and 0.29 % dose/gram
Tissue distribution, Liver ([3]; 3 hrs, Liver): 0.25 % dose/gram and 0.21 % dose/gram
Tissue distribution, Muscle ([3]; 3 hrs): 0.17 % dose/gram and 0.13 % dose/gram
Tissue distribution, Spleen ([3]; 3 hrs, Spleen): 0.17 % dose/gram and 0.13 % dose/gram
Tissue distribution, Tumor ([3]; 3 hrs): 0.34 % dose/gram and 0.28 % dose/gram
Tissue distribution, Muscle ([3]; 4 hrs): 0.23 % dose/gram and 0.13 % dose/gram
Tissue distribution, Tumor ([3]; 4 hrs): 0.64 % dose/gram and 0.44 % dose/gram
Structure (SMILES): O=C(Cn1ccnc1[N+](=O)[O-])NCCCF [[^18F]-EF1, (2-(2-nitro-1H-imidazol-1-yl)-N-3-monofluoropropyl) acetamide]
Visibility of tumor in PET image (Morris 7777 hepatoma): clearly visible
